Laboratory results reported in US11998632B2, “Oral cannabinoid compositions and methods for treating neuropathic pain” (Avicanna Inc., priority 2019, dated 2024).

Assay: Assessment of stability: cannabinoid concentrations by HPLC on stored capsules
Settings: 40-day incubation at 40° C., dark conditions

Row | SMILES | stability of cannabinoid in the formulations (HPLC)
1 | C=C(C)[C@@H]1CCC(C)=C[C@H]1c1c(O)cc(CCCCC)cc1O [CBD, cannabidiol] | remains stable
2 | CCCCCc1cc(O)c2c(c1)OC(C)(C)[C@@H]1CCC(C)=C[C@@H]21 [THC, Tetrahydrocannabinol] | degrades significantly
